From patent US20190161483A1, “METHODS FOR USING FXR AGONISTS” (Novartis AG, priority 2017, published 2019)

Experiments:
NASH subjects = details: FLINT trial; placebo 6%; cited from earlier work
STAM mice = assay: STAM model of NASH
Procedure: Further experiments in the STAM model were performed: 2-day old male C57BI/6J mice were injected with streptozotocin and placed on a high-fat diet (HFD) from weeks 4-12 (HFD-32; CLEA-Japan, Tokyo, Japan). […] Hematoxylin & eosin (H&E)-stained sections were evaluated for nonalcoholic fatty liver disease (NAFLD) activity score (NAS) according to previously defined criteria. Liver total lipid-extracts were isolated, and triglycerides were measured using the Triglyceride E-test (Wako Pure Chemical Industries, Ltd., Japan).
(§1) Liver sections were fixed in 4% paraformaldehyde for 48 h and shipped for histopathological analysis. Liver damage and collagen deposition were assessed by H&E staining and picrosirius red staining, respectively. […] Quantification of images was done with a positive pixel count algorithm using Aperio software (Aperio, Inc., Vista, Calif.).

FGRS = FGRS effects (specificity)
NASH patients = assay: Tropifexor 140-250 μg in patients with mild to moderate NASH and F2/F3 fibrosis; format: in vivo, human; details: dose of about 140 μg to about 250 μg
Source text: Adult male and female patients with EITHER histologic evidence of NASH on liver biopsy within 2 years prior to randomization and elevated ALT, OR phenotypic diagnosis of NASH based on elevated ALT, Type 2 diabetes mellitus or elevated HbA1c and increased BMI, in both cases accompanied by liver fat >10% on centrally-read MRI.
Diagnosis of NASH: Adequate liver biopsy sample for evaluation by Central Reader to confirm Histologic evidence of NASH based on liver biopsy obtained during the Screening period or within 6 months before randomization with a diagnosis consistent with NASH, fibrosis level F2 or F3, and no diagnosis of alternative chronic liver diseases._AND_ALT ≥43 IU/L (males) or ≥28 IU/L (females).
Patients are assigned at the baseline visit to one of the following 3 treatment arms in a ratio of 1:1:1 in a blinded manner. Placebo capsules will be given to maintain blinding.
Arm 3: Once daily (morning, fasting) treatment with matching placebo for 48 weeks
The efficacy variables are: MRI for hepatic fat fraction, Liver Function Test, Liver histology, Coagulation test, Markers of liver fibrosis, NAFLD Fibrosis score, Fasting lipids, Fasting insulin and glucose, Soluble biomarkers.

[1] = Exposure prediction and exposure-response analysis in NASH patients; format: in vivo, human
[2] = test system: ANIT-induced cholestatic rats; assay: ANIT-induced cholestasis rat model
Procedure: Rats were sacrificed 3-5 h after the last dose, blood samples were collected by cardiac puncture, and serum biomarkers of cholestasis, namely alanine transaminase (ALT), aspartate transaminase (AST), alkaline phosphatase (ALP), total bilirubin, total BA, and gamma-glutamyl transpeptidase (GGT) were analyzed.
as §1

NASH mice = assay: Diet-induced (AMLN diet) obese, insulin-resistant NASH model; format: in vivo, mouse
Source text: A separate model for diet-induced NASH was developed as described by Trevaskis et al. Male C57BI6 mice aged ˜6 weeks were maintained on a high fat (40% kcal; Primex), high fructose (22% by weight), and high cholesterol (2% by weight) diet (Research Diets Inc., New Brunswick, N.J. cat. no. D09100301) for 26 weeks to induce NASH. Control animals received low-fat diet (10% kcal) with no fructose or cholesterol (Research Diets, cat. no. D09100304). […] . Expression of collagen, type I, alpha 1 (Col1a1) and tissue inhibitor of metalloproteinase 1 (Timp1) genes was analyzed by real time quantitative PCR.
. NASH was established in mice by feeding a high trans-fat, high fructose, and high cholesterol diet (AMLN diet) for 26 weeks followed by compound treatment for an additional 4 weeks. […] . […] .

[3] = Oral gavage toxicity study in dogs for up to 39 weeks; details: dog, in vivo
FGF19 = assay: Pharmacodynamic marker FGF19 with increasing doses; format: in vivo; details: increasing doses up to 3000 μg

SMILES: CC[C@H]1[C@@H](O)[C@@H]2[C@H](CC[C@]3(C)[C@@H]([C@H](C)CCC(=O)O)CC[C@@H]23)[C@@]2(C)CC[C@@H](O)C[C@@H]12 [OCA, 6α-ethyl-chenodeoxycholic acid]
- patients with pruritus (NASH subjects): 23%

SMILES: O=C(O)c1cc(F)c2nc(N3C4CC[C@H]3C[C@H](OCc3c(-c5ccccc5OC(F)(F)F)noc3C3CC3)C4)sc2c1 [tropifexor, 2-[(1R,3r,5S)-3-({5-cyclopropyl-3-[2-(trifluoromethoxy)phenyl]-1,2-oxazol-4-yl}methoxy)-8-azabicyclo[3.2.1]octan-8-yl]-4-fluoro-1,3-benzothiazole-6-carboxylic acid]
- NAFLD activity score (NAS) (STAM mice; doses 0.1 and 0.3 mg/kg, qd orally weeks 9-12): significant decrease
- fibrosis area (STAM mice; in comparison with baseline group): decreased in comparison with baseline group
- pericellular fibrosis (Sirius Red-positive areas) (STAM mice; mouse, in vivo): statistically significant dose-dependent reduction
- liver triglycerides (STAM mice; tropifexor qd orally weeks 9-12, relative to baseline group): reduction in liver triglycerides
- FGRS effects (FGRS): no FGRS effects
- patients with liver fibrosis improvement (at least 1 stage) with no worsening of NAS (NASH patients): about 50%
- patients with normalization of liver enzymes (NASH patients): ≥ 50%
- patients with resolution of NASH (NAS 0 or 1) with no worsening of liver fibrosis (NASH patients): about 30%
- pruritus outcomes (NASH PRO, 5-D pruritus or VAS) (NASH patients): no significant pruritus outcomes
- reduction of hepatic fat, absolute (NASH patients): 5%
- predicted exposure ([1]; 200 μg daily in NASH patients): approximately 80 ng·hr/ml
- NASH patients achieving an AUC >40 ng*h/mL ([1]; 200 μg dose): ~95%
- AUC ([1]; human, in vivo, oral, 200 ug, read-out: exposure level (AUC) in NASH patients): 80 ng·h/mL
- levels of most cholestatic markers ([2]; 1.0 mg/kg dose, oral qd 5 days): normalized to corresponding levels of vehicle-treated non-cholestatic control animals
- collagen deposition and liver fibrosis ([2]; dose-dependent manner): highly reduced
- quantitation of collagen deposition (fibrosis) ([2]; dose-dependent manner): significantly decreased
- AST, ALT, total BAs, total bilirubin, and GGT levels ([2]; doses as low as 0.3 mg/kg, oral qd 5 days): marked reduction
- liver histology: necrosis of the bile duct epithelium, bile duct hyperplasia, inflammatory cell infiltrates ([2]; versus vehicle-treated cholestatic rats): dose-dependent improvement
- IBA positive staining (inflammation) (NASH mice; 0.3 and 0.9 mg/kg dose groups): normalized to the same level of the control diet group
- liver histology: steatosis, ballooning, and inflammation (NASH mice; 0.3 and 0.9 mg/kg dose groups): completely reverted
- collagen deposition in liver (trichrome staining) (NASH mice; even to levels lower than low-fat diet control mice): strongly abrogates
- ALT/AST (NASH mice; high dose): reduced ALT/AST to an even greater extent
- hepatic crown-like structures (NASH mice; mid- and high dose): completely eliminated
- ALT and AST levels (NASH mice; mid-dose level): normalized ALT and AST levels to that of control animals
- mRNA levels of fibrogenic markers Col1a1 and TIMP1 (NASH mice; mouse, in vivo): dramatically reduced
- steatosis by quantification of liver triglycerides (NASH mice; mouse, in vivo): Dose-dependent reduction in steatosis
- ALT and AST (NASH mice; relative to vehicle-treated controls): dose-dependent reduction
- AUC(0-t) ([3]; female): 507 ng·h/mL
- AUC(0-t) ([3]; male): 898 ng·h/mL
- FGF19 (FGF19): continues to rise
